From patent US4925877A, “Physiologically active erbstatin analogue compounds and compositions” (Zaidanhojin Biseibutsu Kagaku Kenkyukai, priority 1986, dated 1990)
Values after ≈ are worked out from the molar mass of the structure shown. Read-outs that look alike come from different tables or passages of the source.

Experiments:
[1] = molecular target: T1, tyrosine-specific protein-kinase (epidermal growth factor receptor-kinase, A-431 membrane fraction) (Homo sapiens, UniProt P00533); assay: TPK-I activity (inhibition of tyrosine-specific protein-kinase / epidermal growth factor receptor-kinase, 32P-ATP, A-431 membrane fraction); type: biochemical
T1 construct: a membrane fraction of human epidermal carcinoma cells A-431 was used; endogenous in cells; host or cells: A-431 human epidermal carcinoma cells, membrane fraction
T1 sequence (P00533 25-1210): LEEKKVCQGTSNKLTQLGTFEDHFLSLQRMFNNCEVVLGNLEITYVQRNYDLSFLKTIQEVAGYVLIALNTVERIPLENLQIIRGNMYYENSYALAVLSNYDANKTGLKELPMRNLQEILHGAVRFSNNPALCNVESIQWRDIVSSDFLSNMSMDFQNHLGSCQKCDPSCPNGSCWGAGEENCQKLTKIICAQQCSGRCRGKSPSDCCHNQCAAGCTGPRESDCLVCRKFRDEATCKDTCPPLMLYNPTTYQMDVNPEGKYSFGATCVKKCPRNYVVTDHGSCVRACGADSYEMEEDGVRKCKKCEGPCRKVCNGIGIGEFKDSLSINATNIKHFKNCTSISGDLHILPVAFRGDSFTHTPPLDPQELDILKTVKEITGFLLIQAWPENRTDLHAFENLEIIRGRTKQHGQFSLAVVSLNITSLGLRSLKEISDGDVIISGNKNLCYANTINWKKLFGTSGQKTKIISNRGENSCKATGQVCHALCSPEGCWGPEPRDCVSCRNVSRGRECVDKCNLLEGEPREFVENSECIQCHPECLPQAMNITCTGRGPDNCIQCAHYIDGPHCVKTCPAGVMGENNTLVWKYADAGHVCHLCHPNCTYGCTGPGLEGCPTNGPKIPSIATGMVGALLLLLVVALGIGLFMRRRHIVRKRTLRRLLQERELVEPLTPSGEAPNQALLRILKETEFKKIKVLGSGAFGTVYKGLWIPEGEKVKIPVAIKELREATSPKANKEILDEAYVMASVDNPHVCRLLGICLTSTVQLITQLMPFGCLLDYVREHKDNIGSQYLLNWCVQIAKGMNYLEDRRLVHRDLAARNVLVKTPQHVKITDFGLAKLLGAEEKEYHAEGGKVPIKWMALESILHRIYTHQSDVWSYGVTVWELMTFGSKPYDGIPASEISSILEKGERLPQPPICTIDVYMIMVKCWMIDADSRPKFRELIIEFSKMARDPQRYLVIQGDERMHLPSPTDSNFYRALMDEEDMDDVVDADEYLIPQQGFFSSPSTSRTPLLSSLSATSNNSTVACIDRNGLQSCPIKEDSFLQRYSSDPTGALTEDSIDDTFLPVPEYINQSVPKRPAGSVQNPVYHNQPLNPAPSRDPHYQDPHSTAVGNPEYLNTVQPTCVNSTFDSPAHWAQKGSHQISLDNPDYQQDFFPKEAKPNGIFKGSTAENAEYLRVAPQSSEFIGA
Method: 50 μl of the reaction mixture was sampled and absorbed to Wattman No. 3MM filter membrane and dipped in an ice-cooled TCA. After kept for 30 minutes, the filter membrane was taken out and washed out TCA, ethanol and ether, and the count of ^32 P as stuck to the said filter membrane was measured (a). The same reaction and treatment were carried out, where the test substance only was excluded, and the count of ^32 P on the filter was measured in the same manner (b). Further, the values as measured in the cases where the membrane fraction was excluded were (a') and (b'), respectively. Thus, the percentage of the inhibition of the epiderman growth factor receptor-kinase was calculated from the formula of […].
The TPK-I activity of typical compounds of the present invention was extremely high at a low concentration, as shown in the following Table.

L 1210 leukemia cells = assay: Growth inhibition activity against cultured carcinoma cells (L 1210 leukemia cells); type: cell-based; conditions: Mus musculus, L1210, 72 h, read-out: L 1210 IC50 (50%-inhibition concentration against growth)
Method: (B) Growth inhibition activity against cultured carcinoma cells:
After the incubation, the number of the cells was counted and the activity was evaluated.

[2] = tested on: Staphylococcus aureus Smith; assay: Antimicrobial activity, MIC by agar dilution method (Staphylococcus aureus Smith); type: cell-based; conditions: read-out: MIC (Staphylococcus aureus Smith)
Method: (§1) The minimum growth inhibition concentration (MIC) of the compounds of the present invention against various bacteria was measured by means of an agar dilution method using Muller-Hinton medium, which is shown in the following Table.

Psudomonas aeruginosa A3 = assay: Antimicrobial activity, MIC by agar dilution method (Psudomonas aeruginosa A3); type: cell-based; conditions: read-out: MIC (Psudomonas aeruginosa A3)
Method: as §1

[3] = molecular target: T1, tyrosine-specific protein-kinase (epidermal growth factor receptor-kinase, A-431 membrane fraction); conditions: MH435-A, earlier application; cited from earlier work
various bacteria = conditions: MH435-A, earlier application; cited from earlier work
cultured carcinoma cells = conditions: MH435-A, earlier application; cited from earlier work
[4] = A-431 membrane fraction, EGF, histone, pH 7.4, 0° C., 30 minutes, read-out: TPK-I IC50 (converted)
[5] = L 1210 leukemia cells, 3 days, 37° C., 5% CO2
[6] = agar dilution method, Muller-Hinton medium

Compound | IC50 [1, 4] [µM] | IC50 (L 1210 leukemia cells; [5]) [µg/mL] | MIC [2, 6] [µg/mL] | MIC (Psudomonas aeruginosa A3; [6]) [µg/mL] | other results
[C-]#[N+]C=Cc1cc(Br)ccc1O [Compound 2, 2-(5-bromo-2-hydroxyphenyl)vinylisocyanide] | > 28.6 | 0.25 (≈ 1.12 µM) | 6.25 (≈ 27.9 µM) | 12.5 (≈ 55.8 µM) | –
[C-]#[N+]C=Cc1cc(OC)ccc1OC [Compound 3, 2-(2,5-dimethoxyphenyl)vinylisocyanide] | – | – | – | – | IC50 [1]: > 52.9 µM; IC50 (L 1210 leukemia cells): 0.65 µg/mL (≈ 3.44 µM); MIC [2]: 3.12 µg/mL (≈ 16.5 µM); MIC (Psudomonas aeruginosa A3): 25 µg/mL (≈ 132 µM)
O=CNC=Cc1cc(Br)ccc1O [Compound 9, (2-formamidovinyl)-5-bromo-2-hydroxybenzene] | > 26.4 | 12 (≈ 49.6 µM) | 100 (≈ 413 µM) | > 50 | –
COc1ccc(OC)c(C=CNC=O)c1 [Compound 10, (2-formamidovinyl)-2,5-dimethoxybenzene] | > 145 | 62 (≈ 299 µM) | > 100 | > 100 | –
O=CNC=Cc1cc(O)ccc1O [MH435-A] | – | – | – | – | inhibition of tyrosine-specific protein-kinase activity (in words) [3]: can inhibit the said protein-kinase activity in a low concentration; antimicrobial activity (in words) (various bacteria): has antimicrobial activity; antitumor activity (in words) (cultured carcinoma cells): antitumor activity

Now from value to compound, other results behind:

IC50 [1, 4] [µM] | IC50 (L 1210 leukemia cells; [5]) [µg/mL] | MIC [2, 6] [µg/mL] | MIC (Psudomonas aeruginosa A3; [6]) [µg/mL] | Compound | other results
> 33.1 | 23 (≈ 119 µM) | > 100 | > 50 | COc1ccc(O)c(C=CNC=O)c1 [Compound 11, (2-formamidovinyl)-2-hydroxy-5methoxybenzene] | –
– | 30 (≈ 184 µM) | > 100 | > 50 | O=CNC=Cc1ccccc1O [Compound 12, (2-formamidovinyl)-2-hydroxybenzene] | –
1.67 | 2.2 (≈ 12.3 µM) | 100 (≈ 558 µM) | 100 (≈ 558 µM) | O=CNC=Cc1cccc(O)c1O [Compound 13, (2-formamidovinyl)-2,3-dihydroxybenzene] | –
7.26 | 22 (≈ 123 µM) | > 50 | 25 (≈ 140 µM) | O=CNC=Cc1ccc(O)c(O)c1 [Compound 14, (2-formamidovinyl)-3,4-dihydroxybenzene] | –
15.5 | 3 (≈ 15.5 µM) | – | – | CC(=O)NC=Cc1cc(O)ccc1O [Compound 18, (2-acetamidovinyl)-2,5-dihydroxybenzene] | –
